Earlier results, collected in patent publication US20150290173A1, “TREATMENT OF SKIN OR MUCOSAL PATHOLOGY” (ZARZATECH, INC., priority 2012, published 2015).
Where a name gives a salt, the structure may show the parent alone.

How the values were obtained:
[1] = dog gingivitis model
crevicular neutrophils = conditions: topical 0.5% oral rinse, humans

Structure (SMILES) | anti-gingivitis activity ([1]; dose response study) | antibacterial function of crevicular neutrophils (crevicular neutrophils) | clinical benefit on gingivitis (crevicular neutrophils) | gingival inflammation and gingival bleeding [1]
CN/C(=N/CCSCc1nc[nH]c1C)NC#N [cimetidine HCL] | significant anti-gingivitis activity that increased with increasing dose |  |  | 
CN/C(=N/CCSCc1nc[nH]c1C)NC#N [cimetidine, Cimetidine] |  | enhanced antibacterial function of crevicular neutrophils | no clinical benefit on gingivitis | significantly reduced gingival inflammation and gingival bleeding
